Patent US20020039567A1, “Methods of treating bone or cartilage conditions by the administration of creatine” (priority 1998, published 2002)

Experiments:
embryonic rat femora = assay: Embryonic rat femora wet weight in organ culture
Description: The rats were sacrificed on the 17th to 18th day of pregnancy. The embryos were aseptically removed from the uterus, and both femora were carefully dissected free into sterile TBSS under the stereo-microscope. Organ-culture of the rudiments was performed in 10 cm^2 plastic culture dishes. A Teflon carrier with a nylon mesh (20 μm pore size) was mounted in the dish, keeping the explants floating and ensuring optimal gas exchange and nutritional conditions. The right and the left femora from each animal were randomly assigned to the experimental or control group. The control groups were kept in 3 ml B with 50 μg/ml ascorbate. In the experimental group, the growth medium was supplemented with either 10 mM creatine, 20 mM creatine, 1 mM GPA, 5 mM GPA, or 10 mM GPA. The growth medium was renewed every second day until day 10. Culture was carried out at 37.5° C. and in a 5% CO2 atmosphere. At 10 days, the wet weight of each femora was determined on a microbalance. The result of each experimental femora was expressed relative to its collateral control. For the histological evaluation, the femora as fixed in 4% formaldehyde, dehydrated, and embedded in methylmethacrylate. The 6 μm sections were stained by Pentachrome-Movat.

[1] = system: osteoblasts (monolayer culture); assay: Metabolic activity (MTT), monolayer osteoblast cell culture; type: cell-based, rat; details: for metabolic activity measured by the MTT reaction / MTT reaction: preliminary
Description: This isolation technique is based on the ability of osteoblasts to migrate from bone onto a substratum. Parietal and frontal calvariae (4 per animal) were aseptically explanted from 6 day-old IcoIbm rats. The calvariae were placed in Tyrode's balanced salt solution, calcium and magnesium free (TESS). The periosteum was enzymatically removed with 0.05% trypsin and 0.02% collagenase A (0.76 U/mg) dissolved in TBSS (40 calvaria/20 ml). The calvariae were shaken for 70 minutes in a waterbath at 37° C. They were washed with TESS and then transferred to 60 mm culture dishes (40 calvariae/dish) containing 5 ml of 0.02% collagenase A (0.76 U/mg) in culture medium BGJb Fitton-Jackson modification and placed in the incubator for 4 hours. The calvariae were then washed with culture medium B supplemented with 10% foetal calf serum (FCS). The calvariae were transferred into 60 mm culture dishes (4 frontal and 4 parietal/dish). The growth medium supplemented with 10% FCS and 50 μg/ml ascorbate was completely changed every 48 hours. The culture was kept for 3 weeks.
After 3 weeks the migrated cells were harvested. The dish was washed with TESS, and 5 ml of TESS containing 0.05% trypsin and 0.02% collagenase A (0.76 U/mg) was added. After 1 hour in the incubator, the dish was washed with culture medium BGJb supplemented with 10% FCS. The dishes containing the calvariae and cells were rinsed with serum containing media BGJb. The cells obtained were filtered through a 40 μm nylon mesh to remove bone debris and cell aggregates. The suspended cells were centrifuged at 600 g for 5 minutes. The cell pellet was resuspended in serum containing medium BGJb and centrifuged. The viability of the resuspended cells was examined by the dye exclusion of 0.4% trypan blue, and the cells were counted in a haeinocytometer. The inoculation densities were 2·10^5/10 cm^2 for monolayer and 2·10^5/30 μl for micromasses. The micromass cultures were kept for 1 hour in the incubator before 2 ml growth medium was added.
All the cultures were kept at 37° C. in a humidified atmosphere of 5% CO2, 95% air. All culture media were supplemented with 50 μg/ml ascorbate. To analyze the collagen types, 60 μg/ml beta-aminopropionitrile (beta-APN) was added to the culture medium. During cell isolation and inoculation, no ascorbate was used to increase plating efficiency. No antibiotics and no beta-glycerophosphate were added. The media were completely changed every 48 hours (60 mm culture dish 5 ml; 35 mm culture dish 2 ml).
The Böhringer Cell Proliferation Kit I (MTT) was used for the assay, but we used a different solvent to dissolve the MTT crystals.
Originally, Mosmann, 1983 described the general principle involved in the detection of cell growth/cell death as indicated by the conversion of the tetrazolium salt (MTT) to the colored formazan by mitochondrial dehydrogenases. The concentration of this can then be measured spectrophotoinetrically.
1. MTT Stock (5 mg/ml in sterile PBS) from Böhringer was diluted […] with complete growth medium and sterile filtering.
2. The cells were incubated in 2 ml/10 cm^2 MTT solution at 37° C. for 3 hours.
3. The supernatant was carefully removed.
4. 4 ml/10 cm^2 dimethylsulphoxide (DMSO) was added.
5. The dishes were placed on a shaker until the crystals were completely dissolved.
6. The absorbance of the supernatant (3 aliquots/dish) was read at 550 nm versus DMSO.
If the absorbance was higher than 1, the samples were diluted with DMSO.
The mean value and the standard deviation consisted of n independent experiments. The values for the individual experiments were gained from the mean of 3 aliquots of the same dish. To compare the treatment, contrasts analysis of variance models were evaluated.

Compound	wet weight of femora (FIG. 5) (embryonic rat femora; 1 mM GPA vs control)	wet weight of femora (FIG. 5) (embryonic rat femora; 5 mM GPA vs control, p<0.0005)	wet weight of femora (FIG. 5) (embryonic rat femora; 10 mM GPA vs control, p<0.015)	effects on the metabolism and the viability of the cells ([1]; GPA-treated osteoblasts, summary)	metabolic activity measured by the MTT reaction ([1]; 2 weeks, 10 mM GPA vs control)	MTT reaction ([1]; 3 weeks, 1 mM or 5 mM GPA vs control)	MTT reaction ([1]; 3 weeks, 10 mM GPA vs control)	wet weight of femora (FIG. 5) (embryonic rat femora; 10 mM creatine vs control, p<0.0005)	wet weight of femora (FIG. 5) (embryonic rat femora; 20 mM creatine vs control, p<0.001)	metabolic activity (MTT) (FIG. 2) ([1]; 10 mM and 20 mM creatine vs control, 1 week)	metabolic activity (MTT) (FIG. 2) ([1]; 10 mM creatine vs control, 2 weeks, p<0.015)	metabolic activity (MTT) (FIG. 2) ([1]; 10 mM creatine vs control, 3 weeks, p<0.001)	metabolic activity (MTT) (FIG. 2) ([1]; 20 mM creatine vs control, 2 weeks, p<0.0025)	metabolic activity (MTT) (FIG. 2) ([1]; 20 mM creatine vs control, 3 weeks, p<0.001)	metabolic activity measured by the MTT reaction ([1]; 2 weeks, creatine groups vs control)	MTT reaction ([1]; 3 weeks, creatine vs control)
N=C(N)NCCC(=O)O [GPA, beta-guanidinopropionic acid]	not significantly different from the control	control (FIG. 5) had significantly lower wet weights than	control (FIG. 5) had significantly lower wet weights than	adverse effects on both the metabolism and the viability of the cells	lower values than the control	lower values than the control	comparable to the control	–	–	–	–	–	–	–	–	–
CN(CC(=O)O)C(=N)N [creatine]	–	–	–	–	–	–	–	control (FIG. 5) had significantly lower wet weights than	control (FIG. 5) had significantly lower wet weights than	all groups were similar	control group was significantly lower than the 10 mM creatine	significantly higher than the control group	control group was significantly lower than the 10 mM creatine and the 20 mM creatine	significantly higher than the control group	slightly stimulated	stimulated the MTT reaction
